Source: patent US20240390490A1, “PHARMACEUTICAL COMPOSITIONS FOR THE TREATMENT OF CANCERS” (Rutgers, The State University of New Jersey, priority 2021, published 2024)

Experiments:
YAC-1 target cells = assay: NK cell cytotoxicity of PBMC- and spleen-derived NK cells (calcein AM); assay type: in vivo, rat
Procedure: After the end of the drug treatment period, the spleen tissues from control and drug-treated rats were processed, and RBCs and granulocytes were removed from splenocyte suspensions by density centrifugation using Histopaque 1083 (Sigma-Aldrich) as previously described (8). Splenocytes (˜10×10^7 cells per spleen) were extracted from the middle layer, washed with RPMI-1640 (Gibco), and resuspended in buffer (PBS, 0.5% BSA). Splenocytes were incubated with primary Abs conjugated to FITC (BD Biosciences), anti-CD6 (OX52; T cells), anti-CD45RA (OX-33; mature B cells), and anti-RT1B (OX-6; dendritic cells and macrophages), followed by secondary incubation with anti-FITC microbeads, according to the manufacturer's instructions (Miltenyi Biotec). NK cells were then enriched by magnetic separation (negative selection) using an AutoMACS Magnetic Separator (Miltenyi Biotec). The enriched fraction consistently yielded ˜5×10^6 cells per spleen with a purity of ˜80-90%. […] The pelleted cells (PBMC) were counted in a hemocytometer and assayed for viability by trypan blue exclusion. […]
The cytotoxicity of enriched NK cells from PBMC and the spleen against NK-sensitive YAC-1 (ATCC) target cells was determined by calcein AM assays as previously described (8). […] All assays were analyzed and percent cytotoxicity for each sample was calculated as previously described (8).

CT26 colon cancer cells = assay: CT26 colon cancer subcutaneous tumors in BALB/c mice; assay type: in vivo, mouse; settings: male and female mice
Procedure: Balb/c mice (both male and female) were obtained from Taconic Biosciences and injected with 1×10^6 cells of CT26. Once palpable tumors develop (˜50 mm3), animals were allocated into 6 groups (3 mice/group). […] Mice were monitored every day. Tumor volume and mice weight were measured daily. Animals were euthanized when the tumor reached 2,000 mm^3. […] For tumor growth study, Mouse CT26 colon cancer cells were grown until about 90% confluence just 1 day before injection. […] Three dimensions of tumor were measured using electronic calipers, and tumor volumes were calculated by the formula as, L×W^2/2. The mean±SE of tumor volume was calculated weekly for each experimental group and the data are expressed as mean absolute tumor volume.

Question: What does the source list for `CC(C)NCC(O)COc1cccc2ccccc12` (centres unmarked) [PRO, propranolol]?
Answer: NK cell cytolytic activity (YAC-1 target cells): elevated; tumor volume (CT26 colon cancer cells): decreasing tumor volume
